The record followed here is patent US20260240958A1, “REPRESSOR FUSION PROTEIN SYSTEMS” (Scribe Therapeutics Inc., priority 2023, published 2026).

Series [1] deals with human PCSK9 locus. Nature of the series: Secreted PCSK9 ELISA in Huh7 cells transfected with mRNA and gRNA. In kind it is cell-based. As to conditions: for normalized secreted PCSK9 level: days 6, 18, 36. The procedure:
The following three human hepatocyte cancer cell lines were used in this experiment: HepG2 cells, Hep3B cells, and Huh7 cells. ~15,000 cells of each cell line were seeded in each well of a 96-well plate. The next day, seeded cells were transfected with mRNA encoding a catalytically-active CasX 676, dXR1, or LTRP5-ADD-ZIM3 and a gRNA with scaffold 316 and spacer targeting either the B2M or PCSK9 locus (see Table 12 for specific spacers and sequences). Media supernatant was harvested at 4 days post-transfection to assess level of PCSK9 secretion by ELISA, and levels of PCSK9 secretion were normalized to total cell count, as illustrated in FIGS. 2A-2C. Culturing of treated Huh7 cells continued, and media supernatant was harvested at 14 and 27 days post-transfection for measuring PCSK9 secretion by ELISA. As an additional experimental control, PCSK9 secretion was also measured in the media supernatant harvested from wells containing untreated, naïve cells.
To assess PCSK9 secretion, seeded Huh7 cells were transfected with mRNA encoding a catalytically-active CasX 676, dXR1, or LTRP5-ADD-ZIM3 and a gRNA with scaffold 316 and a spacer targeting either the B2M or PCSK9 locus. Media supernatant was harvested at 6, 18, and 36 days post-transfection to assess level of PCSK9 secretion by ELISA. Levels of PCSK9 secretion were normalized to total cell count. As an additional control, PCSK9 secretion was also measured in the media supernatant harvested from wells containing untreated, naïve cells.
In general terms: An ELISA detects its analyte on a solid surface through an enzyme-linked reagent.

For another series, the system named is mouse PCSK9 locus. Nature of the series: Intracellular PCSK9 staining by flow cytometry in Hepa1-6 cells lipofected with mRNA and PCSK9-targeting gRNA. The series is classed as cell-based. The method, then: Transfection of mRNA and gRNA into Hepa1-6 cells and intracellular PCSK9 staining were performed as described in Example 6. Briefly, each well of seeded Hepa1-6 cells was transfected with 300 ng of mRNA encoding LTRP5-ZIM3 or LTRP5-ADD-ZIM3 and 150 ng of PCSK9-targeting gRNA with spacer 27.88 or 27.94. Intracellular levels of PCSK9 protein were measured at various timepoints, up to day 53 post-transfection using an intracellular staining protocol as described earlier in Example 6. A non-targeting gRNA was used as an experimental control.
Seeded Hepa1-6 cells treated with the NATE™ inhibitor were lipofected with 300 ng of mRNA encoding dXR1 or LTRP1-ZIM3 (Table 36) and 150 ng of a PCSK9-targeting gRNA (Table 37). Seven different gRNAs with spacers spanning the promoter region of the mouse PCSK9 locus were tested, in addition to a sequence complementary to the human PCSK9 gene that served as the non-targeting control (Table 37). Cells were harvested at 6, 13, and 25 days after transfection to measure intracellular levels of the PCSK9 protein using an intracellular flow cytometry staining protocol. Briefly, cells were fixed using 4% paraformaldehyde in PBS, permeabilized, and stained using a mouse anti-PCSK9 primary antibody (R&D Systems), followed by a fluorescent goat anti-mouse IgG secondary antibody (Thermo Fisher). Fluorescence levels were measured using the Attune™ NxT flow cytometer, and data were analyzed using the FlowJo™ software. Cell populations were gated using the non-targeting gRNA as a negative control.
Seeded Hepa1-6 cells treated with the NATE™ inhibitor were lipofected with 300 ng of mRNA encoding LTRP1-ZIM3, LTRP5-ZIM3, catalytically-active CasX 491, or dCas9-ZNF10-DNMT3A/3L, and 150 ng of PCSK9-targeting gRNA (Table 37). Intracellular levels of PCSK9 protein were measured at day 7, 14, 21, 36, and 71 days post-transfection using an intracellular staining protocol as described for experiment #1.
For orientation: In flow cytometry, cells or beads pass a laser one at a time.

In another series the test system is B2M gene. Nature of the series: B2M reactivation by DNMT1 inhibitor 5-azadC in transfected HEK293T cells cultured for 58 days. The series is classed as cell-based, human. As to conditions: HEK293T transfected with construct + B2M-targeting gRNA; 0 to 20 μM 5-azadC. From the text:
LTRP configuration 5 containing the ZIM3-KRAB domain, which was generated as described in Example 1, and CasX variant 491 were used in this experiment. A B2M-targeting gRNA with scaffold 174 containing spacer 7.37 (SEQ ID NO: 1904) or a non-targeting gRNA containing spacer 0.0 (SEQ ID NO: 1906) were used in this experiment.

For the next series, the system named is PCSK9 mRNA. The series can be described thus: PCSK9 mRNA RT-qPCR dose response (IC50, IC90, Emax) in primary human hepatocytes treated with LNPs. In kind it is cell-based. The note with it: day 5. The method, then: Two lots (lot #271 and lot #31) of primary human hepatocytes (Lonza Biologics) were plated at density of 65K cells/well. Twenty-four hours later, plates were stamped with the indicated total encapsulated RNA dose of single formulations ALC-0315 LNP (1:1 ratio, pre-incubated with human serum overnight) at the indicated dose in triplicate wells for each condition. Doses tested for each mRNA:gRNA pair (Table 60) were 2400, 800, 270, 90, 30, 10, 0.1, and 0.01 ng/well total encapsulated RNA.
For rounds 1 and 2, cells were immediately lysed in 100 uL DNA RNA shield™ and stored at […] after the day 5 media collection.
Extracted mRNA was processed and analyzed by RT-qPCR. Measurement ofPCSK9 mRNA expression is performed using a single-step RT-qPCR approach. 50 uL lysate was used to extract total RNA using Zymo 96 RNA extraction kits. Total RNA was then reverse transcribed into cDNA and PCSK9 transcript quantified in reference to a GAPDH endogenous control by quantitative PCR using TaqMan probes. Percent change in mRNA was calculated by comparing to samples treated with a non-targeting sequence.
(§1) The ability of pairs of mRNA:gRNA comprising scaffold 316 and an PCSK9-targeting sequence to reduce secretion of PCSK9 and PCSK9 mRNA reduction was assessed. […]
In general terms: In qPCR the cycle at which signal appears reflects the starting amount.

Series [2] deals with human PCSK9 locus. Nature of the series: Secreted PCSK9 dose response (IC50, IC90, Emax) in primary human hepatocytes treated with LNPs. The note with it: day 5. In kind it is cell-based. The method, then: PCSK9 knockdown in primary human hepatocytes, provided an experimental basis for lipofection of gRNA comprising one of the four top editing targeting sequences (Table 59) into PHH cells for assessment of PCSK9 secretion and mRNA reduction. Dose response curves were generated from two lots of PHH cells with three rounds of triplicate wells for each condition. The highest tested dose, 2400 ng/well total encapsulated RNA, was used to measure mRNA expression changes between treated and naïve cells via RNA-seq.
Two lots (lot #271 and lot #31) of primary human hepatocytes (Lonza Biologics) were plated at density of 65K cells/well. Twenty-four hours later, plates were stamped with the indicated total encapsulated RNA dose of single formulations ALC-0315 LNP (1:1 ratio, pre-incubated with human serum overnight) at the indicated dose in triplicate wells for each condition. Doses tested for each mRNA:gRNA pair (Table 60) were 2400, 800, 270, 90, 30, 10, 0.1, and 0.01 ng/well total encapsulated RNA. […]
Secreted PCSK9 levels in the media supernatant were analyzed using the BioLegend® ELISA MAX™ kit following the manufacturer's instructions.
as §1

Consider “dXR1: dCasX fused to ZIM3-KRAB; protein SEQ ID NO 2008”, for which, in the series with human PCSK9 locus [1] (Huh7, spacer 6.138, days 4, 14, 27), the “repression of PCSK9 secretion relative to naïve control at day 4” value is “initial strong repression at day 4, this repressive effect was transient”. Further, the “normalized secreted PCSK9 level” value in the series on human PCSK9 locus [1] (Huh7, spacer 6.138) is “transient repression”. Also, in the series with human PCSK9 locus [1] (Huh7 compared with HepG2 and Hep3B cells, 4 days post-transfection), the “knockdown of PCSK9 secretion (normalized to total cell count)” value is recorded as “most efficient knockdown of PCSK9 secretion”. In the series on mouse PCSK9 locus (day 6, e.g. spacers 27.92 and 27.100), the “degree of PCSK9 repression compared with LTRP1-ZIM3” value was “the degree of repression was less substantial when paired with certain spacers”. In addition, in the series with mouse PCSK9 locus (days 6, 13, 25), the “persistence of PCSK9 repression” value was “transient repression”.
Turning to “TG-06-352: spacer targeting human PCSK9, positioned beyond the 1100 bp threshold window (guide UCCCUCACCAAUUACCCCUC; spacer within gRNA, v1 profile: 2'-OMe and phosphorothioate on first and last three gRNA nucleotides, further chemistry not given here)”, in the series with human PCSK9 locus [1] (Huh7, spacer paired with LTRP5-ADD-ZIM3, compared with spacer 6.1 paired with CasX 676 and controls), the “normalized secreted PCSK9 level” value is given as “effective repression”.
`Nc1ncn([C@H]2C[C@H](O)[C@@H](CO)O2)c(=O)n1` [5-azadC, 5-aza-2′-deoxycytidine]: the “reactivation of the B2M gene upon 5-azadC treatment” value in the series on B2M gene is “resulted in a reactivation of the B2Mgene”.
For “spacer 27.94: gRNA spacer targeting the mouse PCSK9 locus, SEQ ID NO 2014 (guide CCCCUCUUAAUCCCCACUCC; listed as RNA, chemistry not given here)”, the “durability of PCSK9 repression” value with mouse PCSK9 locus (paired with LTRP5-ZIM3 or LTRP5-ADD-ZIM3 mRNA, day 53) is “more durable repression than use of spacer 27.88”.
Regarding “TG-06-154: NHP-conserved TSS-proximal TTC spacer targeting the human PCSK9 locus (Table 40) (guide AGGGUGUGGGUGCUUGACGC; spacer within gRNA, v1 profile: 2'-OMe and phosphorothioate on first and last three gRNA nucleotides, further chemistry not given here)”, in the series with PCSK9 mRNA, the “potency in reducing PCSK9 mRNA levels” value is recorded as “the most potent LTRP spacer”. For the same compound, the “potency in reducing secreted PCSK9 protein” value with human PCSK9 locus [2] was “the most potent LTRP spacer”.
